This is an account of results in ChEMBL document CHEMBL3763143, “Novel morpholine scaffolds as selective dopamine (DA) D3 receptor antagonists” (Bioorg Med Chem Lett, 2016).

The target in data set [1] is T1, D(3) dopamine receptor (Homo sapiens, UniProt P35462). Kind of data set: Agonist activity at human dopamine D3 receptor expressed in CHO cells after 90 mins by [35S]-GTPgamma S assay. In kind it is cell-based. For orientation: GTPγS resists hydrolysis and so accumulates on activated G proteins.
T1 sequence (P35462 whole entry): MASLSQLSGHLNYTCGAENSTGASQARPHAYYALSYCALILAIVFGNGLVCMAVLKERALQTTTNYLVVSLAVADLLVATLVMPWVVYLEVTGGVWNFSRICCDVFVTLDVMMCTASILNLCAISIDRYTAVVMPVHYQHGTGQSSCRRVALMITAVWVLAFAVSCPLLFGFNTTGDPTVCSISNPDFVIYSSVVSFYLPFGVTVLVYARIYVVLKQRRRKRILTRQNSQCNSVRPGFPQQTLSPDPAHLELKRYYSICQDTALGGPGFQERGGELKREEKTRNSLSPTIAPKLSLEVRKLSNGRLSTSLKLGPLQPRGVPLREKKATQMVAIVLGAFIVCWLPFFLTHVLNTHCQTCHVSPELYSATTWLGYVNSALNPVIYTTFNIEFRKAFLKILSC
Data set [2] concerns the target D(3) dopamine receptor (Rattus norvegicus, UniProt P19020).
Description: Displacement of [125I]-7-OH-PIPAT from rat brain dopamine D3 receptor after 45 mins by microplate scintillation counting analysis
Data set [3] addresses T1, D(3) dopamine receptor. Put plainly: Antagonist activity at human dopamine D3 receptor expressed in CHO cells after 90 mins by [35S]-GTPgamma S assay. It counts as cell-based.
For data set [4], the target named is T2, Cytochrome P450 1A2 (Homo sapiens, UniProt P05177).
T2 sequence (P05177 whole entry): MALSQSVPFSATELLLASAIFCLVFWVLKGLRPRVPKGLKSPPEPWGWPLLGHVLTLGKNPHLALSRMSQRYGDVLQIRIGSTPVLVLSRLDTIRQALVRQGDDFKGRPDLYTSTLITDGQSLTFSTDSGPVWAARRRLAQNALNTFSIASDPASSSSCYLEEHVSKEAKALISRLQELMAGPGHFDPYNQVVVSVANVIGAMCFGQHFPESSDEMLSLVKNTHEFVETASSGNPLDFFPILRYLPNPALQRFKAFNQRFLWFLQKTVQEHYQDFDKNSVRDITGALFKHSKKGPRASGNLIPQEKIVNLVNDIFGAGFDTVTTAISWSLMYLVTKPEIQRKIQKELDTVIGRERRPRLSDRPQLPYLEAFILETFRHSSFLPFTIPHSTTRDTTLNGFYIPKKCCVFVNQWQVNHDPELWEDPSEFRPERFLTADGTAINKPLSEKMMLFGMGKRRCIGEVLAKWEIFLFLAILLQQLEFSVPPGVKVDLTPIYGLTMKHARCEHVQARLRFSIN
Kind of data set: Inhibition of human CYP1A2 expressed in bactosome. In kind it is ADME.

Data set [5] concerns the target T3, Cytochrome P450 3A4 (Homo sapiens, UniProt P08684). Kind of data set: Inhibition of human CYP3A4 expressed in bactosome using DBOMF as substrate. In kind it is ADME.
Data set [6] is described as follows: Intrinsic clearance in human liver microsomes assessed per mg of protein. It counts as ADME. Particulars: read-out: CLH. (In general: Microsomes from liver hold many membrane-bound enzymes, among them those of drug oxidation.)
Data set [7] in a line: Fraction unbound in portal vein-cannulated rat blood. It counts as ADME, tissue-based.
In data set [8] the target is Cytochrome P450 2D6 (Homo sapiens, UniProt P10635). Put plainly: Inhibition of human CYP2D6 expressed in bactosome. In kind it is ADME.
Sequence of Cytochrome P450 2D6 (P10635 whole entry): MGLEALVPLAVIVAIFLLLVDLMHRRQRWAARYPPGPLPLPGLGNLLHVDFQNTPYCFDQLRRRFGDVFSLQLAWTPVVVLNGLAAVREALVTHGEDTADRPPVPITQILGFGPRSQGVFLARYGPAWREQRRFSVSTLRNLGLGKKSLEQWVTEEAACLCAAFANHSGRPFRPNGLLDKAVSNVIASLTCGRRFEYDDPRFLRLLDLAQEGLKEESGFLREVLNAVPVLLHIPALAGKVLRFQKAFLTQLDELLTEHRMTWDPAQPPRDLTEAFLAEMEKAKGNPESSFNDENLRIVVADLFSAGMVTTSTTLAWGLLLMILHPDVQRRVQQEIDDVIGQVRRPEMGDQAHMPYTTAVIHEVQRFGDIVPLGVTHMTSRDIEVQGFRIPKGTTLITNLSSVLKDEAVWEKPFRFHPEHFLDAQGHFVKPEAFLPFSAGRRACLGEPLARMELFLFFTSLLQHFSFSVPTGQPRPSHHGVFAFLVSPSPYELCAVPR
The nature of data set [9]: Fraction unbound in portal vein-cannulated rat brain. It counts as ADME, tissue-based.
In data set [10] the target is Cytochrome P450 2C9 (Homo sapiens, UniProt P11712). Put plainly: Inhibition of human CYP2C9 expressed in bactosome. It counts as ADME.
Sequence of Cytochrome P450 2C9 (P11712 whole entry): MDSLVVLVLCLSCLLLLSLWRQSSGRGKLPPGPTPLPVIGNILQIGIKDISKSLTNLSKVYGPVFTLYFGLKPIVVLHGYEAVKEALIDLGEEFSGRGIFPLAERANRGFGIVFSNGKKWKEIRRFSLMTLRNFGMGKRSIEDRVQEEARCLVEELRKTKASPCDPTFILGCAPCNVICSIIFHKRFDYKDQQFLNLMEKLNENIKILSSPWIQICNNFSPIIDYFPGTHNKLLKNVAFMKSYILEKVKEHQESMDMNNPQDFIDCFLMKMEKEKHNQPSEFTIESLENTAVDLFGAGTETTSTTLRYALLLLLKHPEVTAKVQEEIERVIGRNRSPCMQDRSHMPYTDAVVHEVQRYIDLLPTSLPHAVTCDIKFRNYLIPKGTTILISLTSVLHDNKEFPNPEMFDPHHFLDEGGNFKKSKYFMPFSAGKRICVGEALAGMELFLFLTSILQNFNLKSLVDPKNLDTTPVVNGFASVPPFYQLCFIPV
A short description of data set [11]: Intrinsic clearance in rat liver microsomes assessed per mg of protein. It counts as ADME. Particulars: read-out: CLH.
Data set [12] has as its target Cytochrome P450 2C19 (Homo sapiens, UniProt P33261). Kind of data set: Inhibition of human CYP2C19 expressed in bactosome. It counts as ADME.
In data set [13] the target is Voltage-gated inwardly rectifying potassium channel KCNH2 (Homo sapiens, UniProt Q12809). Put plainly: Displacement of [3H]-dofetilide from human ERG potassium channel by scintillation proximity assay.
Sequence of Voltage-gated inwardly rectifying potassium channel KCNH2 (Q12809 whole entry): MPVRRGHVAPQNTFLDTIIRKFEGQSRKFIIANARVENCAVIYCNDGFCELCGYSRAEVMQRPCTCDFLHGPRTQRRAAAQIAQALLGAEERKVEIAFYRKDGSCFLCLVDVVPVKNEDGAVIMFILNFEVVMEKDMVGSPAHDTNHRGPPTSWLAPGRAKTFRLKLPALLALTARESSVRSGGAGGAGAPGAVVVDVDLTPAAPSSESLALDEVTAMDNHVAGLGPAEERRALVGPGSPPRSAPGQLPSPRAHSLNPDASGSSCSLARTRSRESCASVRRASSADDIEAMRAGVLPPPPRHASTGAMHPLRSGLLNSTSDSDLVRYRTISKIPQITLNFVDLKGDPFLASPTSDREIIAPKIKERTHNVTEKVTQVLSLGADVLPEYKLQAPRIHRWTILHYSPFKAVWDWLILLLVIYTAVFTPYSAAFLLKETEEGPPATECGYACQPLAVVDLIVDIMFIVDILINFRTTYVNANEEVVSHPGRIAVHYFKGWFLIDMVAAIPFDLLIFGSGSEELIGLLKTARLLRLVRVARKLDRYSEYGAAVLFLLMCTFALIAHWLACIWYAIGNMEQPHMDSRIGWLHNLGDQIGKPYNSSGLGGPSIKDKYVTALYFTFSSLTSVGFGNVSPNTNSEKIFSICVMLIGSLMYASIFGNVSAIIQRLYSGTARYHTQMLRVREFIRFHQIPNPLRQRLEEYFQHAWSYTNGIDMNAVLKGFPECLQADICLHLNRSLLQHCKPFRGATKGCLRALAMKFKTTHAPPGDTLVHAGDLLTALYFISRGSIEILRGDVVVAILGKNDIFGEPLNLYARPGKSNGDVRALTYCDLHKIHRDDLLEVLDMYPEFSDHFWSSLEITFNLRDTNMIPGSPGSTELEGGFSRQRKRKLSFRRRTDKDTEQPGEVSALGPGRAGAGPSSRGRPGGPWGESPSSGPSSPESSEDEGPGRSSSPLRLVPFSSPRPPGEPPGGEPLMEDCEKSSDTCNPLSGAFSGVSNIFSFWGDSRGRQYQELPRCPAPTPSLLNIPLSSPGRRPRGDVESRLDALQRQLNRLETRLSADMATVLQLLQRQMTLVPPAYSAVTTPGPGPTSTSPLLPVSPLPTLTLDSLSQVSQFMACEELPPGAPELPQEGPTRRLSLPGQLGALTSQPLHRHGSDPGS
Data set [14] has as its target T3, Cytochrome P450 3A4. Kind of data set: Inhibition of human CYP3A4 expressed in bactosome using 7BQ as substrate. It counts as ADME.
In data set [15] the target is T4, Muscarinic acetylcholine receptor M1 (Homo sapiens, UniProt P11229).
T4 sequence (P11229 whole entry): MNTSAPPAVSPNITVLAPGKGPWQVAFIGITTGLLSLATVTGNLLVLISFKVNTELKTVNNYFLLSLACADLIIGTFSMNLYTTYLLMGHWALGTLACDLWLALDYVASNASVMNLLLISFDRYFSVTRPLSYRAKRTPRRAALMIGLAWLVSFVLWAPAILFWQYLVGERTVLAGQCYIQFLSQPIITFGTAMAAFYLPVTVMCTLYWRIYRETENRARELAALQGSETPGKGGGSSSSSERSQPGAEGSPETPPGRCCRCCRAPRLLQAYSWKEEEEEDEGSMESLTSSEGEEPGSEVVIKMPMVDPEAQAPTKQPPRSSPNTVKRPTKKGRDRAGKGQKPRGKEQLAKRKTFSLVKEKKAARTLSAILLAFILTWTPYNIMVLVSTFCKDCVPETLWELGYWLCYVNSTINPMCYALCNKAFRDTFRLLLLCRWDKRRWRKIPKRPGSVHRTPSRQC
Kind of data set: Antagonist activity at muscarinic M1 receptor (unknown origin).

Data set [16] has as its target Muscarinic acetylcholine receptor M3 (Homo sapiens, UniProt P20309). Kind of data set: Binding affinity to muscarinic M3 receptor (unknown origin).
In data set [17] the target is D(1A) dopamine receptor (Homo sapiens, UniProt P21728). Put plainly: Binding affinity to dopamine D1 receptor (unknown origin).
Sequence of D(1A) dopamine receptor (P21728 whole entry): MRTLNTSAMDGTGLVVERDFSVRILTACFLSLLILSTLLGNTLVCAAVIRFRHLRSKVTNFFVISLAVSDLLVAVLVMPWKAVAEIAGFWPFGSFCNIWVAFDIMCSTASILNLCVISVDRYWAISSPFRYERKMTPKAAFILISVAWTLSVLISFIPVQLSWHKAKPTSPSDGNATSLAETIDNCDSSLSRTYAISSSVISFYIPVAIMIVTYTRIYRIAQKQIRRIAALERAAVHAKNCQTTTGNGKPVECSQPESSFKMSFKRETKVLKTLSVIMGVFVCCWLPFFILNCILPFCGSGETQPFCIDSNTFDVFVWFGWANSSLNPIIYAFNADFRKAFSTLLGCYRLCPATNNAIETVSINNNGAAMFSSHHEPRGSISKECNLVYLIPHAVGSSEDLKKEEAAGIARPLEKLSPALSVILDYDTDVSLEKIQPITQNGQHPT
For data set [18], the target named is T5, D(4) dopamine receptor (Homo sapiens) (UniProt P21917).
T5 sequence (whole entry): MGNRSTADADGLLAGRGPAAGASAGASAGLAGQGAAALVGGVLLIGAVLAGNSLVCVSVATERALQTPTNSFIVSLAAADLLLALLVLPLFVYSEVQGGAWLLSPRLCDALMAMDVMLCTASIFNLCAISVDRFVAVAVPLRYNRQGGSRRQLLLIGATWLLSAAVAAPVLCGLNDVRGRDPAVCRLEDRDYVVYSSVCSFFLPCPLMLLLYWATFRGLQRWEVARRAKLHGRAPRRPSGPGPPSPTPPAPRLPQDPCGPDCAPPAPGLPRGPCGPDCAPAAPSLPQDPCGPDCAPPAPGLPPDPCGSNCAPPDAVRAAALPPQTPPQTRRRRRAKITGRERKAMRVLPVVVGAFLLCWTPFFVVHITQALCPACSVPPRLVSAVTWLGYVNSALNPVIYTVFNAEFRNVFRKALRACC
Kind of data set: Binding affinity to dopamine D4 receptor (unknown origin).

Activity calls are given as the source filed them. The calls are words filed in the database; no cut-off is given here.

T3 sequence (P08684 whole entry): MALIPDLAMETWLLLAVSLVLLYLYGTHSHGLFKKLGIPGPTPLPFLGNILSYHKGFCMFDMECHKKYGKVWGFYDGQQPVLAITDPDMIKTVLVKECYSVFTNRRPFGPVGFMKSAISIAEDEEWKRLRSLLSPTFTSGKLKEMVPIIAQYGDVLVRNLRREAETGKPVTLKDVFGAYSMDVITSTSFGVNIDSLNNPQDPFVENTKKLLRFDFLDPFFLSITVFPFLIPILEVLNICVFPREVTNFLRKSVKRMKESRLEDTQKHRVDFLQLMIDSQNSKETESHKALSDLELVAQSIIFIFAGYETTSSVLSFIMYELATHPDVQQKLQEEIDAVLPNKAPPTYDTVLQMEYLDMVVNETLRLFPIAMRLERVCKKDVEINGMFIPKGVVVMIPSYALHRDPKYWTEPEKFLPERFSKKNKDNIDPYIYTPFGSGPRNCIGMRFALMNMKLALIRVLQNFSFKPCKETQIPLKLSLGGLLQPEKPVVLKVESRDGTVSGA
Sequence of D(3) dopamine receptor (Rattus norvegicus, UniProt P19020) (P19020 whole entry): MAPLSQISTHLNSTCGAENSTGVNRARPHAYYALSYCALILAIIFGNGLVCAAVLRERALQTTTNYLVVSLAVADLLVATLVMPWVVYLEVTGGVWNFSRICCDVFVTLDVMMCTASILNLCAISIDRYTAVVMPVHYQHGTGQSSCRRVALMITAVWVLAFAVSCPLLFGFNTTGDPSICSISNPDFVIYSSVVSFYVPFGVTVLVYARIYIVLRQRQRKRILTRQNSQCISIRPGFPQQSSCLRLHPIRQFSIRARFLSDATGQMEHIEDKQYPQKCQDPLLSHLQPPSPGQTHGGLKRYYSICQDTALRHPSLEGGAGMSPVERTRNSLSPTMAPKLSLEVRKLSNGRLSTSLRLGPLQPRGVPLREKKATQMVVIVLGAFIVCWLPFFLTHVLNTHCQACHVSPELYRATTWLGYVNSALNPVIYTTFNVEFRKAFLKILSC
Sequence of Cytochrome P450 2C19 (P33261 whole entry): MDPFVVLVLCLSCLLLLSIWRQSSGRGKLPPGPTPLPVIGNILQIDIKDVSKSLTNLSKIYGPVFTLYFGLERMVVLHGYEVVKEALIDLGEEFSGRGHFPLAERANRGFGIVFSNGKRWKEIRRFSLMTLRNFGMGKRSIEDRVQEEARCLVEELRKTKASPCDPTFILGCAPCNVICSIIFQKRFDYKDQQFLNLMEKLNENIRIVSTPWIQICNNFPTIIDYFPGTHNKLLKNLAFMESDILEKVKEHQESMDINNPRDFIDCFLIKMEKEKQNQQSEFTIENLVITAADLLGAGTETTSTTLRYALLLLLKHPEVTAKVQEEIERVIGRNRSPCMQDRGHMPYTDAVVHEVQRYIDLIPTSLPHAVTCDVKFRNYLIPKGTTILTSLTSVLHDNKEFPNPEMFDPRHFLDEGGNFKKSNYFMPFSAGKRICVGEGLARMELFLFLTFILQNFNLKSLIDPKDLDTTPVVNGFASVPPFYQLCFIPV
Sequence of Muscarinic acetylcholine receptor M3 (P20309 whole entry, looked up): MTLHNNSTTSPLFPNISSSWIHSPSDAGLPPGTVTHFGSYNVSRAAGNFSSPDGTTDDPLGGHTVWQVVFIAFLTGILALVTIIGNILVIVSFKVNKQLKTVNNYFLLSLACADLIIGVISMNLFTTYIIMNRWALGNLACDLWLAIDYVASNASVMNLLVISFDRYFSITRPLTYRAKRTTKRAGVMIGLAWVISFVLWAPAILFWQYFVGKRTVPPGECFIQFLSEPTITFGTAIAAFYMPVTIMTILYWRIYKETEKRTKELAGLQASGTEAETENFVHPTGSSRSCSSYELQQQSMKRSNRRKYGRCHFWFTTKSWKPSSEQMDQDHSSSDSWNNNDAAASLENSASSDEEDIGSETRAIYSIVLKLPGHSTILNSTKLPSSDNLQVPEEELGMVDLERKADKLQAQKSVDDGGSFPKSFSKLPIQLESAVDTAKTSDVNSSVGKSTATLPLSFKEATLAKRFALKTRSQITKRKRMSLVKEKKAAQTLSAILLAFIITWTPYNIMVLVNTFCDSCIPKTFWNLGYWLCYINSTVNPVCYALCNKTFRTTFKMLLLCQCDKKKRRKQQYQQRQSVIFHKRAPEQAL

Take `Cn1c(SCCCN2CCOC(c3ccc(C(F)(F)F)cc3)C2)nnc1-c1ccsc1` (racemic): the Ki (commonly the dissociation constant of the complex between target and ligand, obtained from inhibition or displacement) in [1] was > 10000 nM; in data set [2] it was 100 nM.
For `Cn1c(SCCCN2CCOC(c3ccc(C(F)(F)F)cc3)C2)nnc1-c1ccc(C#N)cc1` (racemic), in that order: > 10000 nM and 100 nM.
For `Cn1c(SCCCN2CCOC(c3ccc(C(F)(F)F)cc3)C2)nnc1-c1cccc(C(N)=O)c1` (racemic), in that order: > 10000 nM and 316 nM.
Take `CC(=O)c1ccc(-c2nnc(SCCCN3CCOC(c4ccc(C(F)(F)F)cc4)C3)n2C)cc1` (racemic): the Ki in data set [3] was 20 nM; in data set [1], > 10000 nM; in [2], 63.1 nM.
Consider `Cn1c(SCCCN2CCOC(c3ccc(C(F)(F)F)cc3)C2)nnc1-c1ccc(C(N)=O)cc1` (stereo in doubt; 26), for which the IC50 in [4], in [5], in data set [8], in data set [10], in [12] and in [14] was > 30000 nM each time. Besides, the microsomal CLint in data set [6] was determined as 63.2 µL/min/mg; in data set [11], 16.3 µL/min/mg. The fraction unbound (as a rule, the share of the substance not bound to proteins or other matrix) in [7] is 0.045; in data set [9], 0.03. The Ki is 6.31 nM in [3], 6310 nM in data set [13] and 15.8 nM in [2].
With `Cc1ncoc1-c1nnc(SCCCN2CCOC(c3ccc(Br)cc3)C2)n1C` (racemic), the Ki is > 10000 nM in [1] and 200 nM in [2].
Molecule `Cc1ncoc1-c1nnc(SCCCN2CCOC(c3ccc(C(F)(F)F)cc3)C2)n1C` (racemic) gave a Ki in data set [2] of 126 nM.
Regarding `Cn1c(SCCCN2CCOC(c3ccc(C(F)(F)F)cc3)C2)nnc1-c1ccc(-c2ncco2)cc1` (racemic), the inhibition constant Ki in data set [3] was 10 nM; in data set [1], > 10000 nM; in [13] it was 1000 nM; in data set [2] it was 5.01 nM.
Consider `Cn1c(SCCCN2CCOC(c3ccc(C(F)(F)F)cc3)C2)nnc1-c1ccc(-n2cnnc2)cc1` (racemic), for which the values for the Ki in [1] and in [2] were > 10000 nM and 126 nM, respectively.
For `Cc1ncoc1-c1nnc(SCCCN2CCOC(c3ccc(F)cc3)C2)n1C` (racemic), in that order: > 10000 nM and 398 nM.
For `Cn1cccc1-c1nnc(SCCCN2CCOC(c3ccc(C(F)(F)F)cc3)C2)n1C` (racemic), in that order: > 10000 nM and 126 nM.
As for `Cc1ccc(C2CN(CCCSc3nnc(-c4ccc(-c5noc(C)n5)cc4)n3C)CCO2)cc1` (racemic), the Ki in [3] was 15.8 nM; in [1], > 10000 nM; in [13], 1000 nM; in data set [2] it was 79.4 nM.
Turning to `Cn1c(SCCCN2CCOC(c3ccc(C(F)(F)F)cc3)C2)nnc1-c1ccc(C(N)=O)cc1` (racemic) [listing 1 of 2 here], the Ki was 20 nM in data set [3]; 1000 nM in [15]; > 10000 nM in [1]; 5010 nM in data set [13]; 31.6 nM in data set [2].
On to `Cc1ccc(C2CN(CCCSc3nnc(-c4ocnc4C)n3C)CCO2)cc1` (racemic), for which the Ki is > 10000 nM in data set [1] and 501 nM in data set [2].
In the case of `Cn1c(SCCCN2CCOC(c3ccc(C(F)(F)F)cc3)C2)nnc1-c1cncc(C(N)=O)c1` (racemic), the results for the Ki in data set [1] and in data set [2] were > 10000 nM and 100 nM, respectively.
For `Cn1c(SCCCN2CCOC(c3ccc(C(F)(F)F)cc3F)C2)nnc1-c1ccc(C(N)=O)cc1` (racemic), the Ki is 39.8 nM in data set [3], > 10000 nM in [1] and 63.1 nM in data set [2].
For `Cn1c(SCCCN2CCOC(c3ccc(C(F)(F)F)cc3)C2)nnc1-c1ccc(-c2nnco2)cc1` (racemic), in that order: 12.6 nM, > 10000 nM and 15.8 nM.
On to `Cn1c(SCCCN2CCOC(c3ccc(C(F)(F)F)cc3)C2)nnc1-c1ccncc1` (racemic), for which the Ki is > 10000 nM in [1] and 100 nM in data set [2].
With `Cn1c(SCCCN2CCOC(c3ccc(C(F)(F)F)cc3)C2)nnc1-c1nccs1` (racemic), the Ki in data set [1] is > 10000 nM; in data set [2], 251 nM.
For `Cn1c(SCCCN2CCOC(c3ccc(C(F)(F)F)cc3)C2)nnc1-c1ccc(S(N)(=O)=O)cc1` (racemic), in that order: > 10000 nM and 126 nM.
In the case of `Cn1c(SCCCN2CCOC(c3ccc(C(F)(F)F)cc3)C2)nnc1-c1ccc(-c2ncco2)cc1` (stereo in doubt; 34), the half-maximal inhibitory concentration (IC50) in data set [4], in data set [5], in data set [8], in data set [10], in [12] and in data set [14] was > 3000 nM throughout. Besides, the figures for the microsomal CLint in data set [6] and in [11] were 668 µL/min/mg and 114 µL/min/mg, respectively. In addition, the fraction unbound in data set [7] is 0.008; in data set [9], 0.005. For the same molecule, the figures for the inhibitory constant (Ki) in [3], in data set [13] and in data set [2] were 3.16 nM, 1260 nM and 6.31 nM, respectively.
As for `Cc1ncoc1-c1nnc(SCCCCN2CCOC(c3ccc(C(F)(F)F)cc3)C2)n1C` (racemic), the Ki in data set [3] was 25.1 nM; in data set [1], > 10000 nM; in [2] it was 79.4 nM.
Take `Cn1c(SCCCN2CCOC(c3ccc(C(F)(F)F)cc3)C2)nnc1-c1cnccn1` (racemic): the figures for the Ki in data set [1] and in data set [2] were > 10000 nM and 158 nM, respectively.
Consider `Cn1c(SCCCN2CCOC(c3ccc(C(F)(F)F)cc3)C2)nnc1-c1ccc(C(N)=O)cc1` (racemic) [listing 2 of 2 here], for which the result in data set [16], in data set [17] and in data set [18] was inactive.
In the case of `Cc1nc(-c2ccc(-c3nnc(SCCCN4CCOC(c5ccc(C(F)(F)F)cc5)C4)n3C)cc2)no1` (racemic), the Ki in data set [3] was 10 nM; in data set [1], > 10000 nM; in data set [2], 25.1 nM.
Take `Cn1cncc1-c1nnc(SCCCN2CCOC(c3ccc(C(F)(F)F)cc3)C2)n1C` (racemic): the inhibitory constant (Ki) in data set [1] is > 10000 nM; in data set [2], 631 nM.
For `Cn1c(SCCCN2CCOC(c3ccc(C(F)(F)F)cc3)C2)nnc1-c1cccnc1` (racemic), in that order: > 10000 nM and 251 nM.
`Cc1ncoc1-c1nnc(SCCCCN2CCOC(c3ccc(C(F)(F)F)cc3)C2)n1C` (stereo in doubt; 11): the values for the Ki in data set [3] and in [13] were 15.8 nM and 2510 nM, respectively. In data set [2], the pKi (in general, −log10 of the Ki, conventionally taken in molar units) came to 7.1.
Regarding `Cc1ncoc1-c1nnc(SCCCN2CCOC(c3ccc(C(F)(F)F)cc3F)C2)n1C` (racemic), the Ki in data set [1] is > 10000 nM; in [2], 200 nM.
For the molecule `Cn1c(SCCCN2CCOC(c3ccc(C(F)(F)F)cc3)C2)nnc1-c1ccc(C(N)=O)nc1` (racemic), the inhibitory constant (Ki) in data set [3] is 15.8 nM; in [1], > 10000 nM; in data set [13], 2000 nM; in [2], 31.6 nM.
`Cn1c(SCCCN2CCOC(c3ccc(C(F)(F)F)cc3)C2)nnc1-c1ccc(-c2ncco2)cc1` (stereo in doubt; 33) gave a Ki in [2] of 398 nM.
